Laboratory results reported in ChEMBL document CHEMBL1201862, “PubChem BioAssay data set” (2004).
One block for each compound: values may come before it. Active and inactive are the calls of the source.

Columns and labels:
[1] = target: Peroxisome proliferator-activated receptor gamma/Nuclear receptor coactivator 1 (Homo sapiens, UniProt P37231); assay: (§1) TR-FRET dose response biochemical High Throughput Screening assay for agonists of the steroid receptor coactivator 1 (SRC-1) recruitment by the peroxisome proliferator-activated receptor gamma (PPAR gamma): non-selective agonists. [Related pubchem assays (depositor defined):AID1300, AID1808, AID504735, AID631]; format: protein assay
[2] = target: Peroxisome proliferator-activated receptor gamma/Nuclear receptor coactivator 3 (Homo sapiens, UniProt P37231); assay: as §1, with “3 (SRC-3)” for “1 (SRC-1)”, “assays: 1301 (Confirmation screen.), 1048 (Primary screen.)]” for “assays (depositor defined):AID1300, AID1808, AID504735, AID631]”; format: functional
[3] = target: Peroxisome proliferator-activated receptor gamma/Nuclear receptor coactivator 2 (Homo sapiens, UniProt P37231); assay: TR-FRET dose response biochemical High Throughput Screening assay for agonists of the steroid receptor coactivator 2 (SRC-2) recruitment by the peroxisome proliferator-activated receptor gamma (PPAR gamma): non-selective agonists. [Related pubchem assays: 1297, 1032 ]; format: functional
T-cell = assay: inhibitors of CD8+ T cell–vesicle binding, dose response, mouse 2C CD8+ T cells, flow cytometry (AID 485284); format: functional
Fatty acid synthase [4] = target: T1, Fatty acid synthase (Homo sapiens, UniProt P49327); assay: FAS thioesterase domain inhibitors, dose response, biochemical, kinetic fluorescence intensity (AID 624326); format: functional;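 note: rate of fluorescence rise from hydrolysis of a fluorogenic O-methyl fluorescein ester substrate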
T1 sequence (P49327 whole entry, the tested form may be a part): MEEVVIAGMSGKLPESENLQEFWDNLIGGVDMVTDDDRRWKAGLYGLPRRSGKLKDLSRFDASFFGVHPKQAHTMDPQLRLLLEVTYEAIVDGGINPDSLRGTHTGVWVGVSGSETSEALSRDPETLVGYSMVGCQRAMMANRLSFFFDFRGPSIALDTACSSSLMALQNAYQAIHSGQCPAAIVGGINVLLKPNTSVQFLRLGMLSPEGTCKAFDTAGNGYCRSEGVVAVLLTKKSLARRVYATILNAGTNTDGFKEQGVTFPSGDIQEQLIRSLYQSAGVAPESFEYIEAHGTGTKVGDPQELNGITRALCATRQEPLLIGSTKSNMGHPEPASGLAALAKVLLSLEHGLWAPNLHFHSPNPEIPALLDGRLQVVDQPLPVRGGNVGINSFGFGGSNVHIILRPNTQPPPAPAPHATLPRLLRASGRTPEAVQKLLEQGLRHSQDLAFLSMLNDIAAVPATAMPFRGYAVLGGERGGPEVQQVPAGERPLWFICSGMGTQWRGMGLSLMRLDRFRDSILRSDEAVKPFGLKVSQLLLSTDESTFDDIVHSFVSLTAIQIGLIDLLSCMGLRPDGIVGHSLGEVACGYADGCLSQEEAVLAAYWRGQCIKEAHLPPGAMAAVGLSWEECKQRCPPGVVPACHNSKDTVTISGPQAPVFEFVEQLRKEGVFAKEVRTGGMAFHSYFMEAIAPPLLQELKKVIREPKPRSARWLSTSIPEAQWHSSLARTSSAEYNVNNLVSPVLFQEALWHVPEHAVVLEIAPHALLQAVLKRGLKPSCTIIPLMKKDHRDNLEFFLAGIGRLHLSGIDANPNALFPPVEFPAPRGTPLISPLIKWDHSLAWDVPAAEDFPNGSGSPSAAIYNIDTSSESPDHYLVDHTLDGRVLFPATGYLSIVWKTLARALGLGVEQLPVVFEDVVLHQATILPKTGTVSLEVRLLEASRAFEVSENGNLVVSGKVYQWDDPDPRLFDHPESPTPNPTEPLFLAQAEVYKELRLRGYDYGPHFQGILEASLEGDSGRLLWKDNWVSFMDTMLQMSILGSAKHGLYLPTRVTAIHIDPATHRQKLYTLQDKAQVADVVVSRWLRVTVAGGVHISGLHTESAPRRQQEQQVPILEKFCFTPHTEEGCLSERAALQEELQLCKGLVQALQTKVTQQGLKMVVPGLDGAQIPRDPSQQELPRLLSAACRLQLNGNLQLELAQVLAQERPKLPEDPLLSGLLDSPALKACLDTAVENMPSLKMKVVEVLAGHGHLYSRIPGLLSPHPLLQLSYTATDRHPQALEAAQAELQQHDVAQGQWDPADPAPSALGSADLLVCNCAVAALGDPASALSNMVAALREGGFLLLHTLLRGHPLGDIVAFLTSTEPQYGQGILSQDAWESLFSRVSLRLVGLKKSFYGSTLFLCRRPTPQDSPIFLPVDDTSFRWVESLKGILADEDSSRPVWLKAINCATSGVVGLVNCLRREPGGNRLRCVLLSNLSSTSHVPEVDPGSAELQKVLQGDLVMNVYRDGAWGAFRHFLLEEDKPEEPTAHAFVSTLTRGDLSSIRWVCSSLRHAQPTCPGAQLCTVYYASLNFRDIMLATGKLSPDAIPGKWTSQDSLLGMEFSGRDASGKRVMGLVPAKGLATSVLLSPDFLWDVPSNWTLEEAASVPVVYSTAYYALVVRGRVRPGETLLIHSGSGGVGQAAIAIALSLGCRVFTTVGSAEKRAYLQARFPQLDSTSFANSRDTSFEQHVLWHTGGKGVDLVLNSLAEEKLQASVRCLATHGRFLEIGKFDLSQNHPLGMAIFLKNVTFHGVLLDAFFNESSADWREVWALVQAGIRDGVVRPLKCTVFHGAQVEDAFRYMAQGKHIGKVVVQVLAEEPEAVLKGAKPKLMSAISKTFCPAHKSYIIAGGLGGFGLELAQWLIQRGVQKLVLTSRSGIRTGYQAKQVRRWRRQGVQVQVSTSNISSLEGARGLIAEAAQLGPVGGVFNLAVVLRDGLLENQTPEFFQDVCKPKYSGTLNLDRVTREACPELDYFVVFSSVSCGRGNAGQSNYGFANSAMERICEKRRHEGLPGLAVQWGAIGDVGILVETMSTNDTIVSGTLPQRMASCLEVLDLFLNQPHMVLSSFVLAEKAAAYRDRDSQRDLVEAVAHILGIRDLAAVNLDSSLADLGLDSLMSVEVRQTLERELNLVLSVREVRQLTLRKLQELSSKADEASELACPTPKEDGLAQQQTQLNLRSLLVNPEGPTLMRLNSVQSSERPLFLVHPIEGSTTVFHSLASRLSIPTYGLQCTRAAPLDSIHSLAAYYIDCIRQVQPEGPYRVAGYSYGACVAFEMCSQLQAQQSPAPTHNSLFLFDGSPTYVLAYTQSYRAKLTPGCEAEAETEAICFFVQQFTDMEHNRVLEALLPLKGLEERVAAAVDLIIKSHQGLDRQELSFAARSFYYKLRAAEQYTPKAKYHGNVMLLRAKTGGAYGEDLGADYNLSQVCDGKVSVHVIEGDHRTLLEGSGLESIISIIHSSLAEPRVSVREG

[5] = target: T2, Kappa-type opioid receptor (Homo sapiens, UniProt P41145); format: functional
T2 sequence (P41145 whole entry): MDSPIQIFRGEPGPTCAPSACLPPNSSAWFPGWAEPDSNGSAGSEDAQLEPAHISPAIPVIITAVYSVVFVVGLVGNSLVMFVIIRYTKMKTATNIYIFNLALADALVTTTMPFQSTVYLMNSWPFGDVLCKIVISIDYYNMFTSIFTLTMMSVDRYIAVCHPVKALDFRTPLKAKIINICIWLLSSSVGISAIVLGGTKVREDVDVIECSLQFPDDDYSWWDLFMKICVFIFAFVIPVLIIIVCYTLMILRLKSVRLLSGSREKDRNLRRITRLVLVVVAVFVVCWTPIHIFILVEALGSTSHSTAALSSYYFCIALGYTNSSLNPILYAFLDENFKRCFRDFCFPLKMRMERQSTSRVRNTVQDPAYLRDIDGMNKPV

[6] = target: T3, Delta-type opioid receptor (Homo sapiens, UniProt P41143); assay: HTS Image-Based Screen for Antagonists of the DOR Receptor. [Related pubchem assays (depositor defined):AID1777, AID1785, AID1786, AID2133]; format: functional
T3 sequence (P41143 whole entry, the tested form may be a part): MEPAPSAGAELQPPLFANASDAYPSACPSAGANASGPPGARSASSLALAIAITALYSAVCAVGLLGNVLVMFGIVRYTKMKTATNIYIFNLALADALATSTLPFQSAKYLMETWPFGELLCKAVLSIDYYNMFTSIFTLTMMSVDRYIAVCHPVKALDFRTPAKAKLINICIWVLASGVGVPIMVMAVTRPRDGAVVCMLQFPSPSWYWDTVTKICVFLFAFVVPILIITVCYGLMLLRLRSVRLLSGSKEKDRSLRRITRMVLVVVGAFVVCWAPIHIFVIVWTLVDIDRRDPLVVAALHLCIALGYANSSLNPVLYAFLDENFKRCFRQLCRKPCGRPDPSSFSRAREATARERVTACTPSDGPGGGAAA

Fatty acid synthase [7] = target: T1, Fatty acid synthase; assay: FAS thioesterase domain inhibitors, dose response, biochemical, endpoint fluorescence intensity, uHTS hits (AID 624327); format: functional;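 note: fluorescence from hydrolysis of an O-methyl fluorescein acyl ester substrate by the enzyme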
[8] = target: T2, Kappa-type opioid receptor; format: functional; remark: listed apart in the source
[9] = target: T3, Delta-type opioid receptor; assay: HTS Image-Based Screen for Agonists of the DOR Receptor. [Related pubchem assays (depositor defined):AID1777, AID1786, AID2133]; format: functional
Mu-type opioid receptor = Mu-type opioid receptor (Homo sapiens, UniProt P35372); assay: HTS Image-Based Screen for Agonists of the MOR Receptor. [Related pubchem assays (depositor defined):AID1777, AID1785, AID1786, AID2133]; format: functional;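 note: imaging of beta-arrestin GFP recruitment into spots after receptor activation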
Mu-type opioid receptor, sequence (P35372 whole entry): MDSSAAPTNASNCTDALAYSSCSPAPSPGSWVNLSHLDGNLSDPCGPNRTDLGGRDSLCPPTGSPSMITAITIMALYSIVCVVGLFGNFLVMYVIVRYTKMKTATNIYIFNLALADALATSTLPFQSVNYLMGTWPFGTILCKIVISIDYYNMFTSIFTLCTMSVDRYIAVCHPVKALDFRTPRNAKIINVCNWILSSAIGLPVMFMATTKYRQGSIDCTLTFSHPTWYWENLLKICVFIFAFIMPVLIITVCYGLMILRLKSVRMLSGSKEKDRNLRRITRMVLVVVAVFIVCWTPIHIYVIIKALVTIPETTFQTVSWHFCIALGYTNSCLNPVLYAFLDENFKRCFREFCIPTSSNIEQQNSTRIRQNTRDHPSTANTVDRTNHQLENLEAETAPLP

Prothrombin = Prothrombin (Homo sapiens, UniProt P00734); assay: Thrombin 1536 HTS Dose Response Confirmation. [Related pubchem assays: 1046 (Thrombin 1536 HTS; hits were confirmed in this assay)]; format: functional
Coagulation factor XII = Coagulation factor XII (Homo sapiens, UniProt P00748); format: functional;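 note: activated factor XIIa alpha cleaving a fluorogenic AMC peptide substrate; inhibitor potency from loss of enzyme activity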
Coagulation factor XII, sequence (P00748 20-372 limits assumed): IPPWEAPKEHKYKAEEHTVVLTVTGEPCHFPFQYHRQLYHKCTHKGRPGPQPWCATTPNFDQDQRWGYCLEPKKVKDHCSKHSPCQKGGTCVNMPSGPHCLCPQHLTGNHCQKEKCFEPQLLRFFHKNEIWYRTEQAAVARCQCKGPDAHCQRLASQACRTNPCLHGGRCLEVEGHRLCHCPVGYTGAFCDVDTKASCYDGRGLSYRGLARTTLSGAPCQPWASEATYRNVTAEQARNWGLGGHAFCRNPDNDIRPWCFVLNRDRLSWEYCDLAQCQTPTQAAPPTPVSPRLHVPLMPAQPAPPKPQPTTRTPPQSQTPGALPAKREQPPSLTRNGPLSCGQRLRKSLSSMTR
Coagulation factor XII, sequence (P00748 373-615 limits assumed): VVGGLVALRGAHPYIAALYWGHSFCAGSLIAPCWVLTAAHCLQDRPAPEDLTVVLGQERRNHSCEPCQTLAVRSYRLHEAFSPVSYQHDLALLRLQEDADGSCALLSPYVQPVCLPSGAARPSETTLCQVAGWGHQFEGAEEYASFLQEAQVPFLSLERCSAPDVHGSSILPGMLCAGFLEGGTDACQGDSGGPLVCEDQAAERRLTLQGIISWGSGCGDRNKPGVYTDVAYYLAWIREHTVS

[10] = target: T4, Tyrosine-protein phosphatase non-receptor type 22 (Homo sapiens, UniProt Q9Y2R2); format: functional
T4 sequence (Q9Y2R2 whole entry): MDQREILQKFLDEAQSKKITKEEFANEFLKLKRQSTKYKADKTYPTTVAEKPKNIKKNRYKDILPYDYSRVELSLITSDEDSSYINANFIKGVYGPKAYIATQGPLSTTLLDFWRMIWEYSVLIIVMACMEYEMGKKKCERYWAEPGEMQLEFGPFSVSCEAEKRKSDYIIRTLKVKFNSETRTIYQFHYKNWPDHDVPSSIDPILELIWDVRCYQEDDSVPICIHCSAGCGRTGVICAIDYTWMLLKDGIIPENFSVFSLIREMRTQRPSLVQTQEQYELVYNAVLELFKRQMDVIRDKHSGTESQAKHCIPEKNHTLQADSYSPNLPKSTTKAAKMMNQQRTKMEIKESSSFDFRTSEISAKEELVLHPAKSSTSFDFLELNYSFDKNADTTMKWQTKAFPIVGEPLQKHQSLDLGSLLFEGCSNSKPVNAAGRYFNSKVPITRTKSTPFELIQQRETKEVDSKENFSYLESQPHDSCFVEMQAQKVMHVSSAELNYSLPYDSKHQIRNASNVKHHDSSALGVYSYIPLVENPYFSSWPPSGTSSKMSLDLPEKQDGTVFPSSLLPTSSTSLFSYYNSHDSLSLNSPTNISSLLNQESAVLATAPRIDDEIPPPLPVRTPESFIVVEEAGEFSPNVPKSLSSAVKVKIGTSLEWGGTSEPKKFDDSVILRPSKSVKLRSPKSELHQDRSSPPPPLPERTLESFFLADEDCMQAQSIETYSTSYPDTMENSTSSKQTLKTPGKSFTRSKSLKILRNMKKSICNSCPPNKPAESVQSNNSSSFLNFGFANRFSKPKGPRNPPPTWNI

[11] = target: T4, Tyrosine-protein phosphatase non-receptor type 22; format: functional; remark: listed apart in the source
[12] = target: T5, Tyrosine-protein phosphatase non-receptor type 7 (Homo sapiens, UniProt P35236); format: functional
T5 sequence (P35236 whole entry): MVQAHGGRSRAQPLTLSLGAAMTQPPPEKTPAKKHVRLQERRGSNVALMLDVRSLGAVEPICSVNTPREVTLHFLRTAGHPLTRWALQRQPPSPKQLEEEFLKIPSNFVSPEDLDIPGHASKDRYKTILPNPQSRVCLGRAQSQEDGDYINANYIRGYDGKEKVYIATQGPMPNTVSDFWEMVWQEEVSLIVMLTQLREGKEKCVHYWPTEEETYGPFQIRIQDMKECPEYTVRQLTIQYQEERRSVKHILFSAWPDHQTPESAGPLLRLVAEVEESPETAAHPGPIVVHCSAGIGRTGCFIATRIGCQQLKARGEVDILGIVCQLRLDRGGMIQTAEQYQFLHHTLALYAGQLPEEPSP

Structure (SMILES): COc1ccc(C2=CC(=O)C[C@H](c3ccc4c(c3)OCO4)C2)cn1
EC50 (T-cell): 19.9 µM (active)

Structure (SMILES): COCCNC(=S)NN=C1CCCCCC1
IC50 (Prothrombin): > 50 µM (not active) | IC50 (Coagulation factor XII): > 50 µM (inactive)

Structure (SMILES): CSc1nsc(SCC(=O)Nc2cccc(C(C)=O)c2)n1
IC50 [10]: > 79.4 µM (inactive) | IC50 [11]: > 79.4 µM (inactive) | IC50 [12]: > 79.4 µM (inactive)

The next lines start with the values.

EC50 [1]: 12.6 µM (inactive) | EC50 [2]: > 79.4 µM (not active) | EC50 [3]: 11.6 µM (not active)
Structure (SMILES): Cc1ccccc1Nc1nc(-c2ccccc2)c(C(=O)Nc2cccnc2)s1

IC50 (Fatty acid synthase [4]): 8.26 µM (active) | EC50 [5]: > 35 µM | IC50 [6]: > 32 µM (inactive) | IC50 (Fatty acid synthase [7]): 9.19 µM (active) | EC50 [8]: 26.4 µM | EC50 [9]: > 32 µM (inactive) | EC50 (Mu-type opioid receptor): > 32 µM (inactive)
Structure (SMILES): O=C1C2ON(c3ccccc3)C(c3cccnc3)C2C(=O)N1c1ccc(Cl)c(Cl)c1 (stereo unspecified)
